Source: US12162867B2, “Inhibitors of RNA helicase DHX9 and uses thereof” (ACCENT THERAPEUTICS, INC., priority 2022, dated 2024)
Read-outs that look alike come from different tables or passages of the source.

Experiments:
[1] = target: T1, Human recombinant DHX9 protein (Homo sapiens, UniProt Q08211); assay: DHX9 ATPase assay (ADP-Glo); format: biochemical; conditions: for IC50: read-out: DHX9 Biochemical Inflection Point
T1 construct: purchased Viva

NCI-H747 cells = assay: DHX9 cellular proliferation assay (CellTiter-Glo), NCI-H747 (CRC-MSS); format: cell-based; conditions: performed at Pharmaron, read-out: H747 (CRC-MSS) Antiproliferative IC50
[2] = test system: circBRIP1 in HCT116 cells; assay: DHX9 circBRIP1 cellular target engagement TaqMan Multiplex assay (qPCR); format: cell-based; conditions: * Taqman assay was used, read-out: DHX9 Cellular Target Engagement EC50
LS411N cells = assay: DHX9 cellular proliferation assay (CellTiter-Glo), LS411N (CRC-MSI); format: cell-based; conditions: LS411N, performed at Pharmaron, read-out: LS411N (CRC-MSI-H) Antiproliferative IC50
[3] = test system: circBRIP1 in HCT116 cells; assay: DHX9 circBRIP1 cellular target engagement SYBR Green assay (qPCR); format: cell-based; conditions: Homo sapiens, HCT-116, circBRIP1, HCT116 cells; SyBr assay (marked ^+); read-out: DHX9 Cellular Target Engagement EC50
[4] = Homo sapiens, NCI-H747, NCI-H747
[5] = Homo sapiens, HCT-116, circBRIP1, HCT116 cells

T1 sequence (Q08211 whole entry): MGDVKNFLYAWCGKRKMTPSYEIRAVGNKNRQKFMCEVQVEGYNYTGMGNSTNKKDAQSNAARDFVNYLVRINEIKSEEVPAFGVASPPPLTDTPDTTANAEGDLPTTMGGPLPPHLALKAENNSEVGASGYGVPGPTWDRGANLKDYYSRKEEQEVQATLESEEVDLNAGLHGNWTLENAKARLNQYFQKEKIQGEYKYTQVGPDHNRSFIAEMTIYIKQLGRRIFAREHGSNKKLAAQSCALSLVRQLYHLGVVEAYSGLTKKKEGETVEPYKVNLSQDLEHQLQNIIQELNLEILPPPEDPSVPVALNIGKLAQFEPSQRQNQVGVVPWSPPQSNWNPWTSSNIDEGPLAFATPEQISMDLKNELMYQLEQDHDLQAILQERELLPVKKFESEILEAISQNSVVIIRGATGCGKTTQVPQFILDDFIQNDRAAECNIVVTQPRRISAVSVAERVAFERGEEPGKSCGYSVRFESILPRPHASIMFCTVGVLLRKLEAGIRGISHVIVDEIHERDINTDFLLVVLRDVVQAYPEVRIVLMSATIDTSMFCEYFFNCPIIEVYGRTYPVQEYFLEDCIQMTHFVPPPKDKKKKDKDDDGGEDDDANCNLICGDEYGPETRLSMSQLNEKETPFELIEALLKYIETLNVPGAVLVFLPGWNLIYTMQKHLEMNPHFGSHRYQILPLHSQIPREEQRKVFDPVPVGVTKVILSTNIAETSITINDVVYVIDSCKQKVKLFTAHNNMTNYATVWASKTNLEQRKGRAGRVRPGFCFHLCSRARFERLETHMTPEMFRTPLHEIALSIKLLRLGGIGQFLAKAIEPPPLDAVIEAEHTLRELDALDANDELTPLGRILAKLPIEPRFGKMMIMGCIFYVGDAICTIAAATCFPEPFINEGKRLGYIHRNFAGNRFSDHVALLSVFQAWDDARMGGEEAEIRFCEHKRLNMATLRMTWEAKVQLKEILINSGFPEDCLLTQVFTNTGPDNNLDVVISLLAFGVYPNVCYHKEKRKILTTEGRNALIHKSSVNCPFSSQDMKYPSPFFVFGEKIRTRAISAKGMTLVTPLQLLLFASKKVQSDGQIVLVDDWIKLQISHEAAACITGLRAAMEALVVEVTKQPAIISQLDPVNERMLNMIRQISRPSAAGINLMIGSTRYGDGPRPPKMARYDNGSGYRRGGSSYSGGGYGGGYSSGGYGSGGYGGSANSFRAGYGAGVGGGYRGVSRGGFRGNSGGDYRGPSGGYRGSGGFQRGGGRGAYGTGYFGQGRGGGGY

Row | DHX9 Biochemical Max Inhibition (%) [1] | IC50 (NCI-H747 cells; [4]) | EC50 [2, 5] | EC50 ([2]; circBRIP1, HCT116 cells) | Compound | IC50 (LS411N cells; Homo sapiens, LS-411N) | further results
1 | 71.5% | > 10000 nM | 112 nM | – | Cc1sc(C(=O)Nc2cc(Cl)cc(NS(C)(=O)=O)c2)cc1-c1ncccc1OC(C)c1cc(F)cc(F)c1 (single isomer, unassigned) [Example 632] | 96.8 nM | –
2 | 54.1% | – | – | 16.8 nM | CCS(=O)(=O)Nc1cc(Cl)cc(NC(=O)c2cc(-c3ncc(N4CC(F)(F)C4)cc3F)n(C)c2)c1 [Example 517] | – | IC50 (NCI-H747 cells; NCI-H747): 2220 nM; IC50 (LS411N cells): 135 nM
3 | 62.5% | – | – | 1350 nM | Cn1cc(C(=O)Nc2cc(Cl)cc(NS(C)(=O)=O)c2)cc1-c1ncc(F)cc1CCc1cncc(F)c1 [Example 728] | – | –
4 | 72% | 2160 nM | 20.7 nM | – | Cc1sc(C(=O)Nc2cc(Cl)cc(NS(C)(=O)=O)c2)cc1-c1ncc(N2CCC3(C2)CC3(F)F)cn1 (stereo not drawn) [Example 491] | 59.1 nM | –
5 | – | – | – | – | Cc1sc(C(=O)Nc2cc(Cl)cc(NS(C)(=O)=O)c2)cc1-c1ncccc1-c1cncc(F)c1 [Example 229] | – | DHX9 Biochemical Max Inhibition [1]: 72.5%; IC50 ([1]; inflection point of dose-response curve): 9.6 nM; IC50 (NCI-H747 cells; Homo sapiens, NCI-H747, NCI-H747, CRC-MSS): > 10000 nM; EC50 [3]: 78.1 nM; IC50 (LS411N cells; Homo sapiens, LS-411N, CRC-MSI-H): 51 nM

Row | Compound | DHX9 Biochemical Max Inhibition (%) [1] | IC50 (NCI-H747 cells; [4]) | EC50 [2, 5] | EC50 ([2]; circBRIP1, HCT116 cells) | IC50 (LS411N cells; Homo sapiens, LS-411N) | further results
6 | CN1CC(Oc2ccc(-c3cc(C(=O)Nc4cc(Cl)cc(NS(C)(=O)=O)c4)cn3C)nc2)C1 [Example 612, N-(3-chloro-5-methanesulfonamidophenyl)-1-methyl-5-{5-[(1-methylazetidin-3-yl)oxy]pyridin-2-yl}pyrrole-3-carboxamide] | 70% | > 10000 nM | 21.2 nM | – | 281 nM | IC50 [1]: 10.1 nM
